Test results: patent US20180246105A1, “IMMUNOLOGICAL TEST KIT FOR […] EFFICACY AND STORAGE METHOD THEREOF” (priority 2015, published 2018)
Entries after “also recorded” stand apart in the source; their conditions may differ.

How the values were obtained:
HBsAg = conditions: after five years of treatment; HBeAg positive CHB patients; cited from earlier work
[1] = Clinical trial ChiCTR-TRC-13003254: serum ALT kinetics; assay type: in vivo, human; conditions: 48-week treatment and 72-week follow-up
Procedure: HBV DNA was not detected or the level decreased at least 2 log 10 IU/mL compared with the basement on weeks 12, 24, 36, 48 and 72; The AST and ALT level on weeks 12, 24, 36, 48 and 72; The histological response, with the inflammation and fibrosis should rate under level 1 of the liver on week 48.
Routine biochemistry (liver function, renal function); Blood cell analysis; Serum HBV DNA detection; HBVM detection; All the detection were conducted in the central laboratory of Huashan Hospital.

CD4+ T cells = experiment: Clinical cellular immune detection (10-day enrichment), CD4+ T cells re-stimulated with HBV-specific peptides; assay type: in vivo, human
Procedure: (§1) 7) Cell seeding and peptide stimulation. PBMC was re-suspended with 10% FBS-RPMI-1640 and seeded into 12-well plate with 1mL/well. Specific peptides were added at the same time with 1 μL per well. The plate was then incubated in 5% CO2, 37° C.
(§2) After five days incubation, 50 μL sample was taken from each well and stored at −80° C. Then added 500 ul 10% FBS-RPMI-1640 contained […], continued for another five days incubator.
(§3) 2) Stimulation. After 10 days enrichment, the cells in 12-well plate were transferred into a 1.5 mL EP tube. Centrifuge with 1500 rpm, 3 min. Discard supernatant and re-suspend with FBS-RPMI-1640 prepared in step 1. The suspended cells were then seeded into a 96-well plate, the plate was coated with PMA, N, CMV, S4, S8 and MIX, 90 uL/well with three repetitions. Then the plate was incubated in 5% CO2, 37° C. for 8 hours.
(§4) 3) Storage. After 8 hours incubation, the 96-well plate was set for centrifuge with 1500 rpm, 3 min. Discard supernatant and re-suspend with 200 μL cell freezing medium (10% DMSO with 90% FBS). Disassociation by pipetting 3 to 5 times and sealed with parafilm. And then set for gradient cryopreservation with 4° C. for 1 hour, at −20° C. for 40 min and at −80° C. thereafter.
(§5) 3) Cell surface marker staining Panel 1, CD4-APC; Panel 2, CD8-APC; Panel 3, CD4-FITC. The dose of antibody was as the recommended dose in the reagent manual. Plate was centrifuged with 1500 rpm, 3 min. Discard supernatant and re-suspend with staining buffer in 4° C. for 30 min.
6) Intracellular staining. Panel 1/Panel 2, IFN-g-PE, TNF-α-BV421, IL-17-APC/cy7, IL-2-FITC; Panel 3, FOXP3-APC, IL-4-BV421, IL-10-PE. The dose of antibody was at the recommended dose in the reagent manual. Re-suspend the cells with staining buffer in room temperature for 1.5 hour with shake.
8) FACS detection. The detection was conducted with BD LSR Fortessa (BD Bioscience, USA). The voltage and compensation may be well adjusted. The result data was analyzed with FlowJo v7.6.3, and the results were shown as positive percentage.
Antigen specific cellular immunity may play an important role in chronic HBV treatment. […] Peripheral Blood mononuclear cells (PBMC) were isolated and re-stimulated with HBV-specific polypeptide for 10-day enrichment. After the cell was collected and re-stimulated by HBV-specific polypeptide for 8 hours, the levels of cytokines in CD4+ and CD8^+ T lymphocytes were detected by flow cytometry. IL-2, IL-4, IL-10, IL-17a, Foxp3, IFN-γ and TNF-α were analyzed in CD4^+ T cells, whereas IL-2, IL-17a, IFN-γ and TNF-α were analyzed in CD8^+ T lymphocyte.

CD8+ T cells = experiment: Clinical cellular immune detection (10-day enrichment), CD8+ T cells re-stimulated with HBV-specific peptides; assay type: in vivo, human
Procedure: as §1, §2, §3, §4, §5
6) Intracellular staining. […]
8) FACS detection. […] The result data was analyzed with FlowJo v7.6.3, and the results were shown as positive percentage.
Antigen specific cellular immunity may play an important role in chronic HBV treatment. […] After the cell was collected and re-stimulated by HBV-specific polypeptide for 8 hours, the levels of cytokines in CD4+ and CD8^+ T lymphocytes were detected by flow cytometry. IL-2, IL-4, IL-10, IL-17a, Foxp3, IFN-γ and TNF-α were analyzed in CD4^+ T cells, whereas IL-2, IL-17a, IFN-γ and TNF-α were analyzed in CD8^+ T lymphocyte.

[2] = test system: T cell subsets (Th1, Th2, Th17, Treg, Tc1, Tc17); experiment: T-lymphocyte subset proportions and subset ratios during treatment; assay type: in vivo, human
Source text: From the previous results, a T cell responds heterogeneously. In order to intuitively understand the dynamic changes of different T cell subsets, IFN-γ^+ CD4^+ T cells were assigned into the Th1, IL-4^+ CD4^+ T cells as TH2, IL-17a producing CD4^+ T cells as TH17, Foxp3^+CD4^+ T cells Treg, and the CD8^+ T cells secreting different cytokines were classified as TC1 and […] by the same method.
In order to further obtain the effect of different therapies on cellular immunity, the TH1/Treg, Th2/Treg, Th17/Treg, and Th1/th2 was analyzed and plotted.

[3] = 0 to 72 weeks, significant changes at 24th week

| SMILES | patients with HBsAg serotype transformed (HBsAg) | ALT level, change [1] | Foxp3 expression in CD4+ T cells (Treg), dynamics (CD4+ T cells; [3]) | IL-10 secretion in CD4+ T cells, dynamics (CD4+ T cells; [3]) | Foxp3 expression in CD4+ T cells (Treg), dynamics (CD4+ T cells; 0 to 72 weeks, significant changes at 24th week, listed as Adv) | IL-4 in CD4+ T cells, dynamics (CD4+ T cells; S-polypeptide pool stimulation) | IFN-γ expression in CD4+ T cells, dynamics (CD4+ T cells; S-polypeptide pool stimulation, 0 to 72 weeks) | IL-2 and TNF-α in CD4+ T cells, dynamics (CD4+ T cells; S-polypeptide pool stimulation, course of treatment) | IL-17A in CD4+ T cells, dynamics (CD4+ T cells; peptide pool stimulation, course of treatment) | IFN-γ secreted by CD8+ T cells, dynamics (CD8+ T cells; HLA-A2+ or HLA-A2− S polypeptide re-stimulation, 0 to 72 weeks) | IL-17A of CD8+ T cells, dynamics (CD8+ T cells; S polypeptide pool stimulation) | IL-2 and TNF-α secreted by CD8+ T cells, dynamics (CD8+ T cells; S polypeptide re-stimulation, course of treatment) | change of TH1, TH2, TH17, TC1 and Tc17 cell proportions ([2]; 0 weeks to 72 weeks) | proportion of Treg cells in total T cell subsets ([2]; 48 weeks) [%] | proportion of Treg cells in total T cell subsets ([2]; 72 weeks, follow-up endpoint) [%] | proportion of Treg cells in total T cell subsets ([2]; baseline) [%] |
| --- | --- | --- | --- | --- | --- | --- | --- | --- | --- | --- | --- | --- | --- | --- | --- | --- |
| C[C@H](Cn1cnc2c(N)ncnc21)OCP(=O)(O)O [Tenofovir] | 23 of 266 | – | – | – | – | – | – | – | – | – | – | – | – | – | – | – |
| CC(C)(C)C(=O)OCOP(=O)(COCCn1cnc2c(N)ncnc21)OCOC(=O)C(C)(C)C [ADV, Adefovir Dipivoxil] | – | did not change significantly | not significantly changed; also recorded: no significant fluctuation; also recorded: did not show significant fluctuation | no significant change | did not change significantly; also recorded: did not show significant fluctuation | no difference | no significant difference | no significant difference | no significant change | no difference | no significance | No significant difference | no significant changes | 25.8 | 37.8 | 37.7 |
